Values quoted from earlier work as cited in patent US20040009962A1, “Combined estrogen blockade of the breast with exemestane and raloxifene” (priority 2000, published 2004).
Where two headings read alike, the source gives them in different places.

Columns and labels:
endometrium = conditions: baseline vs 8 weeks of treatment
metastatic breast cancer [1] = tested on: metastatic breast cancer
[2] = tested on: early stage breast cancer
[3] = tested on: MCF-7 breast cancer cells; conditions: estrogen deficient state vs supplemented with estrogen
[4] = tested on: DMBA-induced rat mammary tumor; conditions: DMBA-induced rat mammary tumor model
[5] = tested on: DMBA- and NMN-induced mammary carcinogenesis; conditions: may be less when compared with tamoxifen
rats [6] = tested on: rats
healthy men = conditions: 200 mg/day orally
metastatic breast cancer [7] = conditions: 200 mg/day
[8] = tested on: healthy postmenopausal women
[9] = deep vein thrombosis, pulmonary embolism, retinal vein thrombosis
whole body aromatization = conditions: 10 postmenopausal women with advanced breast cancer
[10] = tested on: 7, 12-dimethyl-benzanthracene (DMBA)-induced mammary tumors; conditions: rats
[11] = except at relatively high doses
rats [12] = tested on: rats; remark: listed apart in the source
[13] = Ames, V79, E. coli, DNA repair on rat hepatocytes, micronucleus, in vivo and in vitro chromosome aberration
[14] = tested on: plasma estrogen levels (E2, E1, E1S); conditions: suppression of E2, E1 and E1S, postmenopausal women
metastatic breast cancer [15] = tested on: metastatic breast cancer; remark: listed apart in the source
metastatic breast cancer [16] = conditions: 25 mg/day
metastatic breast cancer [17] = conditions: 25 mg/day orally, 241 women
[18] = all doses, interim analysis, vs placebo

estrogen
change in the endometrium on uterine biopsy (endometrium): significant endometrial stimulation

CC/C(=C(\c1ccccc1)c1ccc(OCCN(C)C)cc1)c1ccccc1 [tamoxifen, Tamoxifen]
response rates (metastatic breast cancer [1]; premenopausal women, metastatic breast cancer): 20 to 45%
objective response rates (metastatic breast cancer [1]; unselected postmenopausal women with metastatic disease): 30 to 40%
response rates (metastatic breast cancer [1]; women with ER-positive and PR-positive tumors): 60-70%
annual rates of recurrence and mortality ([2]; adjuvant therapy, premenopausal and postmenopausal women): reduce
reduction of the risk of contralateral breast cancer ([2]; five years of adjuvant tamoxifen vs no adjuvant therapy): 47%
tumor mitotic rate [3]: marked reduction
appearance of new tumors [4]: reduced
objective response rate [4]: 29%

O=C(c1ccc(OCCN2CCCCC2)cc1)c1c(-c2ccc(O)cc2)sc2cc(O)ccc12 [raloxifene, Raloxifene]
anti-tumor activity [5]: anti-tumor activity
agonist activity on the rat uterus (rat uterus; administered alone): little agonist activity
uterotropic action of estradiol (rat uterus; immature rat): inhibits
bone mineral density (ovariectomized rat): increases
serum cholesterol (ovariectomized rat): decreases
DNA adducts or hepatocarcinogenesis (rats [6]): no reports
response to exogenous estrogen (anti-estrogen effect) (healthy men): blunt
tolerability (metastatic breast cancer [7]; 14 patients): well tolerated
objective responses (metastatic breast cancer [7]; tamoxifen-refractory group): no objective responses
bone mineral density in the hip, spine, femur and total body [8, 18]: increase
markers of bone turnover [8, 18]: decrease
HDL cholesterol ([8]; in vivo): unchanged
serum total and LDL cholesterol ([8]; in vivo): significantly decreased
side effects ([8]; in vivo): increased hot flashes and leg cramps
tolerability ([8]; in vivo): well tolerated
endometrial thickness ([8]; transvaginal ultrasound, any treatment group): unaffected
risk of venous thromboembolic events [9]: increased risk
change in the endometrium on uterine biopsy (endometrium): no change
relative risk of endometrial cancer (postmenopausal women; p=0.232): 0.38
risk reduction of breast cancer (postmenopausal women; raloxifene 60 or 120 mg/day vs controls): 58%
relative risk of endometrial cancer (postmenopausal women; two cases diagnosed within one month of randomization excluded, p=0.045): 0.13

C=C1C[C@@H]2[C@H](CC[C@]3(C)C(=O)CC[C@@H]23)[C@@]2(C)C=CC(=O)C=C12 [exemestane, Exemestane]
mean suppression of whole body aromatization (whole body aromatization): 97.9%
whole body aromatization on treatment (mean) (whole body aromatization; pretreatment 2.059%): 0.042%
efficacy against DMBA-induced mammary tumors [10]: highly effective
tolerability [11]: good tolerability
embryotoxic dose (rats [12]): ≥ 50 mg/kg
teratogenicity (rats [12]): not teratogenic
embryotoxic dose (rabbits): ≥ 270 mg/kg
teratogenicity (rabbits): not teratogenic
genotoxic potential, all tests except chromosome aberration in human lymphocytes [13]: negative
concentration from which the chromosome aberration test was positive (human lymphocytes): ≥ 12000 ng/mL
dose at which inhibition of plasma estrogen levels became apparent [14]: about 1 mg
overall success rate (CR+PR+SD>6 months) (metastatic breast cancer [15]; 25 mg): 47%
overall response rate (CR+PR) (metastatic breast cancer [15]; 25 mg, 128 postmenopausal women, 95% CI 21-37): 28%
overall response rate (CR+PR) (metastatic breast cancer [15]; 88 patients who had measurable disease): 34%
median duration of response (metastatic breast cancer [15]; 95% CI 11-20 months): 14 months
overall response rate (metastatic breast cancer [15]; patients with visceral disease): 33%
stable disease>6 months (metastatic breast cancer [15]; treated population): 19%
overall response rate (metastatic breast cancer [16]; 87 women, 95% CI 6-20): 11%
SD>6 months (metastatic breast cancer [16]; additional patients): 17.2%
overall success rate (CR+PR+SD>6 months) (metastatic breast cancer [17]): 25%
overall objective response rate (metastatic breast cancer [17]; third- and fourth-line): 7%
appearance of new tumors [4]: reduced
objective response rate [4]: 44%
